Assay results published in US8188059B2, “Compounds and methods for modulating expression of GCGR” (Isis Pharmaceuticals, Inc., priority 2006, dated 2012).
Strand notation (5' to 3'): a small letter for the sugar, then the base; units joined by * are phosphorothioate-linked, units joined directly phosphodiester-linked; [ ] holds rarer units or linkages, { } end groups; capitals alone tell only the bases. [PALM-N] = nucleoside bearing a 2'-(butylacetamido)-palmitamide (C16 palmitic acid) substituent (N: the base); e = 2'-O-(2-methoxyethyl) (MOE); l = locked nucleic acid (LNA); [5mC] = 5-methylcytosine; d = 2'-deoxy (DNA)

What was measured:
mouse SGLT2 mRNA [1] = assay: Mouse SGLT2 mRNA levels in kidney, MOE versus Methyleneoxy BNA gapmers, Balb/c mice (Example 15, Table 69); format: in vivo
Procedure: The effect of ISIS 379692 1-10-1 MOE gapmer and ISIS 388625 2-8-2 MOE gapmer are compared with the effect of ISIS 392170 1-10-1 Methyleneoxy BNA Gapmer and ISIS 392173 2-8-2 Methyleneoxy BNA Gapmer (see Table 69) on mouse SGLT2 mRNA levels in vivo. Data are taken from three experiments in which male 6-week old Balb/c mice were dosed twice per week for three weeks with 5, 25 and 125 nmol/kg of either the ISIS 379692 1-10-1 MOE gapmer or the ISIS 388625 2-8-2 MOE gapmer given by intraperitoneal injection. Mice were sacrificed 48 hours following last administration and evaluated for SGLT2 mRNA levels in kidney. Target levels were determined by RT, real-time PCR as described by other examples herein. PCR results were normalized to an internal ISIS control. The data are expressed as percent change (“+” indicates an increase, “−” indicates a decrease) relative to saline treated animals and are illustrated in Table 69.

ApoB mRNA = ApoB mRNA in liver of Balb/c mice, palmitic acid conjugates, single i.p. dose, with ED50 (Example 30, Table 95); format: in vivo, mouse; settings: for % Inhib: Balb/c mice, about 48 hours after dose, relative to saline-treated controls
Procedure: 0.4, and 0.16 umol/kg. Each dose group consisted of four animals. A 5-10-5 MOE gapmer was used for a control treatment. Mice were sacrificed approximately 48 hours following the final dose. Liver tissue was collected for RNA isolation, and blood was collected for serum chemistry analyses. ApoB mRNA levels were measured by real-time PCR as described herein. ApoB mRNA levels were normalized to RNA levels as determined by RIBOGREEN, and are presented in Table 95 as percent inhibition relative to ApoB mRNA levels in saline-treated control animals.
At the 2.5 umol/kg dose, ApoB inhibition by the short antisense compounds was greater than observed with a 5-10-5 MOE gapmer at an equivalent dose. […] Triglycerides were reduced at the 2.5 and […] doses of ISIS 387462 and ISIS 391872.

PTEN mRNA = PTEN mRNA levels in liver, kidney and fat, Balb/c mice, single 8 μmol/kg i.p. (Example 6, Table 48); format: in vivo, mouse; settings: 8 μmol/kg single i.p., 72 h, saline = 100
Source text: (§1) Each dose group consisted of four animals. Shown in Table 46 are the sequences and motifs of the PTEN antisense compounds used in this study. Bolded residues indicate 2′-O-methoxyethyl moieties (2′-MOE) and italicized residues indicate Methyleneoxy BNA nucleotides. Each antisense compound comprises phosphorothioate linkages throughout. In addition, the cytosine residues in the gap of ISIS 384073 and in the wings of ISIS 392056, ISIS 392057, ISIS 392061 and ISIS 392063 are replaced with 5-methylcytosines. Antisense compounds target published PTEN nucleic acids, including Genbank Accession No. U92437.1 (SEQ ID NO: 13).
(§2) Mice were sacrificed 72 hours following injection to determine serum transaminase levels (Table 47); liver and spleen weights (Table 47); and PTEN mRNA levels in liver, kidney and fat (Table 48), according to procedures described herein and well know to one of ordinary skill in the art.

[2] = Transaminase levels, liver and spleen weights, body weight (Example 6, Table 47); format: in vivo, mouse; settings: 8 μmol/kg single i.p.; 72 h; Balb/c mice
Source text: as §1, §2

[3] = Plasma glucose in ZDF rats, once a week for twelve weeks (Example 16, Table 71); format: in vivo, rat
Procedure: (§3) ISIS 388625, 388626 and control oligo ISIS 388628 were analyzed for their effect on ZDF rat plasma glucose levels and HbA1c. The leptin receptor deficient Zucker diabetic fatty (ZDF) rat is a useful model for the investigation of type 2 diabetes. Diabetes develops spontaneously in these male rats at ages 8-10 weeks, and is associated with hyperphagia, polyuria, polydipsia, and impaired weight gain, symptoms which parallel the clinical symptoms of diabetes (Phillips M S, et al., 1996, Nat Genet. 13, 18-19). Six week old ZDF rats were injected intraperitoneally with short antisense compound at a dose of 400 nM/kg once a week for twelve weeks. Data are illustrated in Tables 71 and 72.

[4] = HbA1c status in ZDF rats (Example 16, Table 72); format: in vivo, rat; settings: for Percentage HbA1c on specific dates, Day 40 / Percentage HbA1c on specific dates, Day 55 / Percentage HbA1c on specific dates, Day 68: 400 nM/kg i.p. once a week for twelve weeks; for Percentage HbA1c on specific dates, Day 40: Day 40, p < 0.001; for Percentage HbA1c on specific dates, Day 55: Day 55, p < 0.001; for Percentage HbA1c on specific dates, Day 68: Day 68, p < 0.001
Procedure: as §3

mouse SGLT2 mRNA [5] = assay: Mouse SGLT2 mRNA levels in kidney, additional 1-10-1 and 2-8-2 MOE gapmers, Balb/c mice (Example 15, Table 68); format: in vivo
Procedure: 1-10-1 and 2-8-2 MOE gapmer short antisense compounds were designed to target different regions of the mouse SGLT2 RNA but have complementarity across species. […] All cytidine residues are 5-methylcytidines.
The short antisense compounds were analyzed for their effect on mouse SGLT2 mRNA levels in vivo. Data was taken from three experiments in which male 6-week old Balb/c mice were dosed twice per week for three weeks with 0.5, 0.1, or 0.02 umol/kg of either a 1-10-1 or 2-8-2 MOE gapmer given by intraperitoneal injection. Mice were sacrificed 48 hours following last administration and evaluated for SGLT2 levels in kidney. Target levels were determined by RT, real-time PCR as described by other examples herein. PCR results were normalized to an internal ISIS control.

[6] = 5 nmol/kg i.p. twice per week for three weeks
[7] = 25 nmol/kg i.p. twice per week for three weeks
[8] = 125 nmol/kg i.p. twice per week for three weeks
[9] = Day 10, 400 nM/kg i.p. once a week for twelve weeks
[10] = Day 40, 400 nM/kg i.p. once a week for twelve weeks
[11] = Day 55, 400 nM/kg i.p. once a week for twelve weeks
[12] = Day 66, 400 nM/kg i.p. once a week for twelve weeks
[13] = compared to PBS and control treated animals

ISIS 392170: SGLT2; 1-10-1 Methyleneoxy BNA Gapmer (antisense lT*dG*dT*dT*d[5mC]*d[5mC]*dA*dG*d[5mC]*d[5mC]*d[5mC]*lA)
SGLT2 mRNA, percent change relative to saline treated animals (mouse SGLT2 mRNA [1]; [6]): −23 percent change | SGLT2 mRNA, percent change relative to saline treated animals (mouse SGLT2 mRNA [1]; [7]): −54 percent change | SGLT2 mRNA, percent change relative to saline treated animals (mouse SGLT2 mRNA [1]; [8]): −69 percent change

ISIS 391871: ApoB; GGTACATGGAAGTC 1-1-10-2 2′-(butylacetomido)-palmitamide/MOE/MOE Unmodified cytosines in gap (antisense [PALM-G]*eG*dT*dA*dC*dA*dT*dG*dG*dA*dA*dG*eT*e[5mC])
estimated ED50 (ApoB mRNA; single i.p. injection): 13.1 mg/kg

391172 (antisense lC*lT*dA*dG*dC*dC*dT*dC*dT*dG*dG*dA*lT*lT*lT) [compound 391172]
% PTEN mRNA levels in Fat (PTEN mRNA): 101% | % PTEN mRNA levels in Kidney (PTEN mRNA): 63% | % PTEN mRNA levels in Liver (PTEN mRNA): 18% | ALT [2]: 32.8 IU/L | AST [2]: 48.5 IU/L | Liver Weight [2]: 120 % Saline | Spleen Weight [2]: 112 % Saline

384073 (antisense lG*lC*lT*dA*dG*d[5mC]*d[5mC]*dT*d[5mC]*dT*dG*dG*dA*lT*lT*lT) [compound 384073]
% PTEN mRNA levels in Fat (PTEN mRNA): 77% | % PTEN mRNA levels in Kidney (PTEN mRNA): 74% | % PTEN mRNA levels in Liver (PTEN mRNA): 24% | ALT [2]: 29.3 IU/L | AST [2]: 57.8 IU/L | Liver Weight [2]: 115 % Saline | Spleen Weight [2]: 111 % Saline

ISIS 392173: SGLT2; 2-8-2 Methyleneoxy BNA Gapmer (antisense lT*lG*dT*dT*d[5mC]*d[5mC]*dA*dG*d[5mC]*d[5mC]*l[5mC]*lA)
SGLT2 mRNA, percent change relative to saline treated animals (mouse SGLT2 mRNA [1]; [6]): −44 percent change | SGLT2 mRNA, percent change relative to saline treated animals (mouse SGLT2 mRNA [1]; [7]): −57 percent change | SGLT2 mRNA, percent change relative to saline treated animals (mouse SGLT2 mRNA [1]; [8]): −75 percent change

141923 (antisense CCTTCCCTGAAGGTTCCTCC; sugars from the 5' end e5 d10 e5, all phosphorothioate, methylation of C not given here) [compound 141923]
% PTEN mRNA levels in Fat (PTEN mRNA): 118% | % PTEN mRNA levels in Kidney (PTEN mRNA): 133% | % PTEN mRNA levels in Liver (PTEN mRNA): 102% | ALT [2]: 34.8 IU/L | AST [2]: 89.5 IU/L | Liver Weight [2]: 101 % Saline | Spleen Weight [2]: 108 % Saline

391871 (antisense [PALM-G]*eG*dT*dA*dC*dA*dT*dG*dG*dA*dA*dG*eT*e[5mC]) [compound 391871]
% Inhib (ApoB mRNA; single i.p. dose 0.16 umol/kg): 0% | % Inhib (ApoB mRNA; single i.p. dose 0.4 umol/kg): 5% | % Inhib (ApoB mRNA; single i.p. dose 1.0 umol/kg): 18%

388628 (antisense eT*eA*dG*d[5mC]*d[5mC]*dG*d[5mC]*d[5mC]*d[5mC]*dA*e[5mC]*eA) [compound 388628]
Plasma glucose levels [3, 9]: 436.0 mg/dL | Plasma glucose levels [3, 10]: 502.0 mg/dL | Plasma glucose levels [3, 11]: 411.2 mg/dL | Plasma glucose levels [3, 12]: 668.8 mg/dL | Percentage HbA1c on specific dates, Day 40 [4]: 8.0% | Percentage HbA1c on specific dates, Day 55 [4]: 9.1% | Percentage HbA1c on specific dates, Day 68 [4]: 7.8%

391872 (antisense [PALM-G]*lG*dT*dA*dC*dA*dT*dG*dG*dA*dA*dG*lT*l[5mC]) [compound 391872]
% Inhib (ApoB mRNA; single i.p. dose 0.16 umol/kg): 18% | % Inhib (ApoB mRNA; single i.p. dose 0.4 umol/kg): 50% | % Inhib (ApoB mRNA; single i.p. dose 1.0 umol/kg): 92%

388625 (antisense eT*eG*dT*dT*d[5mC]*d[5mC]*dA*dG*d[5mC]*d[5mC]*e[5mC]*eA) [compound 388625]
Plasma glucose levels [3, 9]: 435.5 mg/dL | Plasma glucose levels [3, 10]: 278.7 mg/dL | Plasma glucose levels [3, 11]: 213.8 mg/dL | Plasma glucose levels [3, 12]: 325.5 mg/dL | Percentage HbA1c on specific dates, Day 40 [4]: 6.5% | Percentage HbA1c on specific dates, Day 55 [4]: 5.8% | Percentage HbA1c on specific dates, Day 68 [4]: 4.3%

ISIS 388626: SGLT2; GGCATGAGCTTC 2-8-2 MOE (antisense eG*eG*d[5mC]*dA*dT*dG*dA*dG*d[5mC]*dT*eT*e[5mC])
% change in SGLT2 expression relative to saline (mouse SGLT2 mRNA [5]; 0.02 umol/kg i.p. twice per week for three weeks): −45% | % change in SGLT2 expression relative to saline (mouse SGLT2 mRNA [5]; 0.1 umol/kg i.p. twice per week for three weeks): −60% | % change in SGLT2 expression relative to saline (mouse SGLT2 mRNA [5]; 0.5 umol/kg i.p. twice per week for three weeks): −80% | Plasma glucose levels [3, 9]: 434.7 mg/dL | Plasma glucose levels [3, 10]: 300.5 mg/dL | Plasma glucose levels [3, 11]: 219.8 mg/dL | Plasma glucose levels [3, 12]: 379.8 mg/dL | Plasma glucose levels [3, 13]: significantly reduced | Percentage HbA1c on specific dates, Day 40 [4]: 6.6% | Percentage HbA1c on specific dates, Day 55 [4]: 5.9% | Percentage HbA1c on specific dates, Day 68 [4]: 4.0% | HbA1C [4, 13]: significantly reduced
